Series [1] concerns primary human myeloma tumor cells. Put plainly: BCMA-specific T-ChARM T cells co-cultured with primary myeloma cells in the presence of GSI (cytokines, proliferation). Format: cell-based. The protocol: (A) IL-2 production by BCMA CAR-T cells (BCMA-specific T-ChARM C11 3ST-CD28 and BCMA-specific T-ChARM C11 3ST-41BB) or control CD19sh CAR (short spacer)-T cells co-cultured with primary human myeloma tumor cells for 24 hours alone or with various concentrations of GSI RO429097 (0.003 μM to 3.0 μM).
(B) IFN-γ production by BMCA T-ChARM T cells co-cultured with myeloma cells at various concentrations of RO429097.
(O) Intracellular staining showing IFN-γ production (y-axis) and CD8 expression (x-axis) by T-ChARM T cells of the present disclosure cultured with primary MM cells from 2 patients in the absence (0 μM; left panels) or presence (1 μM; right panels) of GSI RO4929097.
(P) IFN-γ production (geometric mean fluorescence intensity (gMFI)) by T-ChARM T cells of the present disclosure cultured with primary MM cells in the presence of the indicated concentration of RO4929097 (x-axis).
(Q) IFN-γ production (normalized MFI; y-axis) by T-ChARM T cells of the present disclosure cultured with primary MM cells in the presence of the indicated concentration of RO4929097 (x-axis).
(R) Proliferation of T-ChARM T cells of the present disclosure in the presence of primary MM cells that were untreated (grey shading) or treated with 1.0 μM GSI RO4929097.
To examine the effect of a GSI on CAR T cell activity against BCMA^+ multiple myeloma, IL-2 production by BCMA CAR-T cells (BCMA-specific T-ChARM C11 3ST-CD28 and BCMA-specific T-ChARM C11 3ST-41BB) or control CD19sh CAR (short spacer)-T cells was measured after co-culture with primary human myeloma tumor cells for 24 hours in media containing at various concentrations of GSI RO429097 (0.003 μM to 3.0 μM) (FIG. 4A).
Next, the effect of GSI on T cell functionality of T cells containing a BCMA-specific T-ChARM was examined.

Series [2] has as its system MM cell lines. Briefly: Viability of MM cell lines cultured in GSI, propidium iodide staining. The class given is cell-based, human. Particulars: 1.0 μM in culture. How it is done:
(L) Viability of indicated MM-expressing cells as measured by propidium iodide staining of cell lines cultured in 1 μM GSI.
Next, the effect of removing GSI from MM cell culture was examined. […] Finally, the viability of the tested MM cell lines was not affected by addition of 1.0 μM RO429097 to culture (FIG. 3L).

On to `CC(C)(C(=O)NCC(F)(F)C(F)(F)F)C(=O)N[C@@H]1C(=O)Nc2ccccc2-c2ccccc21` [RO4929097], for which the “IL-2 production by BCMA T-ChARM T cells” value in series [1] (24 hours co-culture, GSI 0.003 μM to 3.0 μM) is listed as “dose dependent increase”. In addition, the “proliferation of CFSE-labeled BCMA-specific T-ChARM T cells” value in series [1] (3 days co-culture with primary myeloma cells) is “increased in a dose dependent manner”. Moreover, the “IFN-γ production and CD8 expression by co-cultured T-ChARM T cells” value in series [1] (GSI treatment of primary myeloma tumor samples) is “greatly improved”. The “IFNγ production by BCMA T-ChARM T cells” value in series [1] (co-culture with myeloma cells, various GSI concentrations) was “increased”. Further, the “proliferation of T-ChARM T cells” value in series [1] (primary MM cells treated with 1.0 μM GSI vs untreated) was “increased proliferation”. For the same compound, the “GSI concentration at which effects on T-ChARM T cell IFN-γ were seen” value in series [1] (primary myeloma tumor samples) is no less than 0.1 µM. Besides, the “viability of MM cell lines” value in series [2] is listed as “not affected”.

Values taken from patent publication US11845803B2, “Combination therapies for treatment of BCMA-related cancers and autoimmune disorders” (Fred Hutchinson Cancer Center, priority 2017, dated 2023).
